According to patent US11098040B2, “Compounds and methods of use” (Ferro Therapeutics, Inc., priority 2018, dated 2021):
Where two headings read alike, the source gives them in different places.

Columns and labels:
AsPC-1 = experiment: Cell viability assay (CellTiter Glo), pancreatic adenocarcinoma AsPC-1; assay type: cell-based; settings: Homo sapiens, ASPC1; pancreatic adenocarcinoma, ascites, 96 hours, CellTiter Glo; read-out: IC50 AsPC-1
Method: (§1) Cell viability assay was performed to assess the potency of the compounds in human cancer cell lines KP4 (pancreatic ductal adenocarcinoma), MiaPaCa-2 (pancreatic carcinoma), AsPC-1 (pancreatic adenocarcinoma, ascites), 143B (osteosarcoma), and SJSA-1 (osteosarcoma). Selected compounds were also assayed in a human breast epithelial cell line MCF-10A, a nontumorigenic cell line as a control to assess differential activity. Cells at a density of 500-5,000 cells/well were seeded in 96-well plates and incubated at 37° C. overnight. A series of 9 different concentrations of compound stocks (500×) were created by 3-fold serial dilution in DMSO. These compounds were further diluted in culture media and then added to cells so that the final DMSO concentration was equal to 0.25% or less. After 96 hours of incubation, 50 μL of CellTiter Glo reagent (Promega) was added to each well and luminescence was measured after 10 minutes using EnVision (PerkinElmer). Compounds titrated from top concentration of up to 30 μM. The select compounds were tested initially from 30 μM as the top concentration in duplicates (range of 4.6 nM-30 μM). […] Luminescence from cells treated with DMSO alone was set as Max and % of inhibition was calculated as follows: Inhibition %=(Max-Sample value)/Max*100. Data was analyzed using XL-fit software (ID Business Solutions Ltd.). IC50, relative IC50, or % of top inhibition was calculated.
(§2) The results of the assay in the pancreatic cell lines are given in Table 15a for PANC1, Table 15b for MiaPaCa-2, and Table 15c for AsPC-1.

MCF-10A = experiment: Cell viability assay (CellTiter Glo), non-tumorigenic breast epithelial cell line MCF-10A; assay type: cell-based; settings: Homo sapiens, 96 hours
Method: as §1
Paclitaxel was used as the positive control for cytotoxicity.

SJSA-1 [1] = experiment: Cell proliferation (Alamar Blue) assay, SJSA-1 osteosarcoma, with/without ferrostatin; assay type: cell-based, human; settings: Homo sapiens
Outline: (§3)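 Cells seeded at 5000/well, 16-24 h, then exposed 24 h at 37° C to compound, 10-0.0005 μM in 3-fold dilutions, 1% DMSO final. Alamar Blue fluorescence (ex 540/em 590 nm) read after 1.5 h; IC50 from variable-slope sigmoidal fit.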

786-O = experiment: Cell proliferation (Alamar Blue) assay, 786-O renal cell carcinoma, with/without ferrostatin; assay type: cell-based; settings: Homo sapiens
Outline: as §3

A431 = experiment: Cell proliferation (Alamar Blue) assay, A431; assay type: cell-based; settings: Homo sapiens, A-431; Cell Line A431
Method: Cells (SJSA-1, 786-O and A431) were seeded (5000 cells/100 μL/well) in 96-well tissue culture plate and incubated at 37° C./5% CO2 for 16-24 hours. The cells were then treated with compounds (25 μL of 5×). The compound concentrations were 10-0.0005 μM prepared in 3-fold serial dilutions with final DMSO concentration of 1%. The plates were then incubated for 24 h at 37° C./5% CO2 in a moist environment. Then Alamar Blue™ reagent (final concentration 1×-12.5 μL) was added to each well and incubated for 1.5 hours at 37° C./5% CO2. The plates were read on fluorescence reader at 540 nm excitation and 590 nm emission wavelengths. The IC50 values were subsequently determined using a sigmoidal dose-response curve (variable slope) in GraphPad Prism® 5 software.
The cell proliferation assays for the compounds shown Table 25 was performed according to the protocols described herein, including Examples 4 and 6.

[2] = PK profile, IV plasma concentration and PK parameters; assay type: in vivo; settings: Balb/C nude, mouse, iv, 5 mg/kg, 30% Kolliphore EL with 1% poloxamar 407 in water; for AUC(0-t): read-out: AUC0-t; for AUC(0-inf): read-out: AUC0-∞
Method: The PK profiles of compounds 148, 149, 150, 156 and 169 are shown below. Compound 156 was formulated in 30% Kolliphor EL (Cremophor EL) in water and compounds 148, 149, 150 and 169 were formulated in 30% Kolliphore EL with 1% poloxamar 407 in water. All compounds were dosed at 5 mg/kg. Blood samples were collected at various time points and analyzed using the method described above.

MiaPaCa-2 = experiment: Cell viability assay (CellTiter Glo), pancreatic carcinoma MiaPaCa-2; assay type: cell-based; settings: Homo sapiens, MIA PaCa-2; pancreatic carcinoma, 96 hours, CellTiter Glo; read-out: IC50 MiaPaCa-2
Method: as §1, §2

SJSA-1 [3] = experiment: Cell viability assay (CellTiter Glo), osteosarcoma SJSA-1; assay type: cell-based; settings: Homo sapiens, 96 hours
Method: as §1
The results of the assay in sarcoma cell lines are given in Table 21a for HT-1080 luc2 (fibrosarcoma expressing a luciferase gene), Table 21b for 143B (osteosarcoma), and Table 21c for SJSA-1 (osteosarcoma).

A549 = experiment: Cell viability assay, A549 cells; assay type: cell-based; settings: Homo sapiens, A549, Cell Line A549; read-out: IC50
Outline: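 Growth of A549 cells was assessed with a cell viability assay. Cells were plated at 1,000-10,000 cells/well in 96-well plates and incubated overnight at 37° C. Nine-point 3-fold DMSO dilutions, starting from 30 μM and run in duplicate, were diluted into media (final DMSO 0.25% or less). After 96 hours, CellTiter Glo luminescence was read, inhibition was calculated against DMSO controls, and IC50 was fitted in XL-fit.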

[4] = SJSA-1, Cell Line SJSA-1, read-out: IC50
[5] = 786-0, Cell Line 786-O, read-out: IC50

Structure (SMILES)	IC50 (AsPC-1) [nM]	IC50 (SJSA-1 [1]; [4]) [µM]	IC50 (786-O; [5]) [µM]	IC50 (A431) [nM]	IC50 (MCF-10A) [nM]	other results
COC(=O)[C@H]1Cc2c([nH]c3ccc(Br)cc23)[C@H](c2ccc(C(=O)OCC3CC3)cc2)N1C(=O)CCl [Example 87]	22	–	–	–	460	–
COC(=O)c1ccc([C@H]2c3[nH]c4ccc(Br)cc4c3C[C@H](C(=O)OC)N2C(=O)CCl)cc1 [Example 88]	30	–	–	–	460	–
C#CC(=O)N1[C@@H](CCCC)Cc2c([nH]c3ccccc23)[C@@H]1c1ccc(NC23CC4CC(CC(C4)C2)C3)cc1 [Compound 148, 1-((1 S,3S)-1-(4-(((3R,5R,7R)-adamantan-1-yl)amino)phenyl)-3-butyl-1,3,4,9-tetrahydro-2H-pyrido[3,4-b]indol-2-yl)prop-2-yn-1-one]	–	0.008	0.006	3600	–	C0 [2]: 40600 ng/mL; Cmax [2]: 33000 ng/mL; clearance [2]: 4.79 mL/min/kg; AUC(0-t) [2]: 17200 ng·h/mL; AUC(0-inf) [2]: 17400 ng·h/mL; Vd ([2]; read-out: Vd): 2.39 L/kg; Vd ([2]; read-out: Vss): 0.47 L/kg; half-life ([2]; time points considered 4-24 h): 5.76 h
COC(=O)[C@H]1Cc2c([nH]c3ccccc23)[C@H](c2ccc(S(=O)(=O)N3CC(O)C3)cc2)N1C(=O)CCl [Example 37]	–	–	–	–	5460	IC50 (MiaPaCa-2): 279 nM; IC50 (SJSA-1 [3]): 630 nM
COC(=O)[C@H]1Cc2c([nH]c3ccccc23)[C@H](c2ccc(C(=O)NCCN3CCOCC3)cc2)N1C(=O)CCl [Example 27]	–	–	–	–	9410	IC50 (MiaPaCa-2): 466 nM; IC50 (SJSA-1 [3]): 1410 nM
COC(=O)c1ccc([C@H]2c3[nH]c4ccccc4c3C[C@H](C)N2C(=O)CCl)cc1 [Example 77]	74	–	–	–	890	–
COC(=O)[C@H]1Cc2c([nH]c3ccccc23)[C@H](c2ccc(S(=O)(=O)N3CCC(O)CC3)cc2)N1C(=O)CCl [Example 35]	–	–	–	–	4150	IC50 (MiaPaCa-2): 117 nM; IC50 (SJSA-1 [3]): 313 nM
C[C@H]1Cc2c([nH]c3ccccc23)[C@H](c2ccc(N3CCOCC3)cc2F)N1C(=O)CCl [Compound 233]	–	0.0443	0.0337	4800	–	IC50 (A549): 1970 nM
[2H]C([2H])(Cl)C(=O)N1[C@@H](c2ccc(C(=O)OC)cc2)c2[nH]c3ccccc3c2C[C@@H]1C(=O)OC [Example 90]	132	–	–	–	1480	–
COC(=O)[C@H]1Cc2c([nH]c3ccccc23)[C@H](c2ccc(C(=O)N3CCOCC3)cc2)N1C(=O)CCl [Example 26]	–	–	–	–	3970	IC50 (MiaPaCa-2): 52 nM; IC50 (SJSA-1 [3]): 339 nM
COC(=O)[C@H]1Cc2c([nH]c3ccccc23)[C@H](c2ccc(C(=O)OCC34CC(F)(C3)C4)cc2)N1C(=O)CCl [Compound 76]	35	–	–	–	1110	–
COC(=O)[C@H]1Cc2c([nH]c3ccccc23)[C@H](c2ccc(S(=O)(=O)NCC3CC3)cc2)N1C(=O)CCl [Example 82]	61	–	–	–	3740	–
Cc1cc(N2CCOCC2)ccc1[C@H]1c2[nH]c3ccccc3c2C[C@H](C)N1C(=O)CCl [Compound 234, 2-chloro-1-((1S,3S)-3-methyl-1-(2-methyl-4-morpholinophenyl)-1,3,4,9-tetrahydro-2H-pyrido[3,4-b]indol-2-yl)ethan-1-one]	–	3.92	4.17	8000	–	IC50 (A549): 3250 nM
CCCC[C@H]1Cc2c([nH]c3ccccc23)[C@H](c2ccc(S(=O)(=O)NC3CC3)cc2F)N1C(=O)CCl [Compound 169, 4-((1S,3S)-3-butyl-2-(2-chloroacetyl)-2,3,4,9-tetrahydro-1H-pyrido[3,4-b]indol-1-yl)-N-cyclopropyl-3-fluorobenzenesulfonamide]	–	0.001	0.003	3900	–	IC50 (SJSA-1 [1]; SJSA-1, 24 h, Alamar Blue, 24 h, 2 μM ferrostatin, read-out: SJSA-1 (IC50, μM) 2 μM Ferrostatin): > 10 µM; IC50 (SJSA-1 [1]; SJSA-1, 24 h, Alamar Blue, 24 h, without ferrostatin, read-out: SJSA-1 (IC50, μM) Without Ferrostatin): 0.001 µM; IC50 (786-O; 786-0, 24 h, Alamar Blue, 24 h, 2 μM ferrostatin, read-out: 786-O (IC50, μM) 2 μM Ferrostatin): 4.96 µM; IC50 (786-O; 786-0, 24 h, Alamar Blue, 24 h, without ferrostatin, read-out: 786-O (IC50, μM) Without Ferrostatin): 0.003 µM; C0 [2]: 5380 ng/mL; Cmax [2]: 2220 ng/mL; clearance [2]: 109 mL/min/kg; AUC(0-t) [2]: 760 ng·h/mL; AUC(0-inf) [2]: 762 ng·h/mL; Vd ([2]; read-out: Vd): 2.39 L/kg; Vd ([2]; read-out: Vss): 0.98 L/kg; half-life ([2]; time points considered 0.25-2 h (1 h excluded)): 0.25 h
C#CC(=O)N1[C@@H](CCCC)Cc2c([nH]c3ccc(F)cc23)[C@@H]1c1ccc(S(=O)(=O)NC2CCC2)cc1 [Compound 143, 4-((1S,3S)-3-butyl-6-fluoro-2-propioloyl-2,3,4,9-tetrahydro-1H-pyrido[3,4-b]indol-1-yl)-N-cyclobutylbenzenesulfonamide]	–	0.009	0.009	2700	–	–
CCCC[C@H]1Cc2c([nH]c3ccccc23)[C@H](c2ccc(NC34CC5CC(CC(C5)C3)C4)cc2)N1C(=O)CCl [Compound 149, 1-((1S,3S)-1-(4-(((3R,5R,7R)-adamantan-1-yl)amino)phenyl)-3-butyl-1,3,4,9-tetrahydro-2H-pyrido[3,4-b]indol-2-yl)-2-chloroethan-1-one]	–	0.002	0.001	3800	–	C0 [2]: 29400 ng/mL; Cmax [2]: 22000 ng/mL; clearance [2]: 13 mL/min/kg; AUC(0-t) [2]: 6540 ng·h/mL; AUC(0-inf) [2]: 6550 ng·h/mL; Vd ([2]; read-out: Vd): 2.34 L/kg; Vd ([2]; read-out: Vss): 0.53 L/kg; half-life ([2]; time points considered 2-8 h): 2.12 h

Further lines, with some results ahead:

IC50 (AsPC-1) [nM]	IC50 (SJSA-1 [1]; [4]) [µM]	IC50 (786-O; [5]) [µM]	IC50 (A431) [nM]	Structure (SMILES)	IC50 (MCF-10A) [nM]	other results
29	–	–	–	COC(=O)[C@H]1Cc2c([nH]c3ccccc23)[C@H](c2ccc(C(=O)OCC3CCC3)cc2)N1C(=O)CCl [Example 85]	500	–
107	–	–	–	C=CCOC(=O)c1ccc([C@H]2c3[nH]c4ccccc4c3C[C@H](C(=O)OC)N2C(=O)CCl)cc1 [Example 74]	6560	–
28	–	–	–	COC(=O)[C@H]1Cc2c([nH]c3ccccc23)[C@H](c2ccc(C(=O)OCC3CC3)cc2)N1C(=O)CCl [Example 75]	1290	–
73	–	–	–	COC(=O)[C@H]1Cc2c([nH]c3ccccc23)[C@H](c2ccc(C(=O)NCC3CC3)cc2)N1C(=O)CCl [Example 81]	2660	–
